Reference: PubChem BioAssay AID2060912 (Molecular Pharmacology Branch, DTP, NCI, 2025)

Test system: HUVEC/MSC spheroids viability
Assay: Human HUVEC/MSC cell line growth inhibition [KRAS2];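 as to viability, T/C: percent of DMSO vehicle control luminescence so 100% = untreated viability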
Details: for IC50: curve of first compound; for viability, T/C: stronger effect = lower value
How it was run: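 Concentration ranges start near each agent's clinical Cmax, or at 10 microM if none is established, and fall by half-log increments. These ranges are tested as single agents and combinations on endothelial/mesenchymal stem cell spheroids lacking tumour cells.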

Q: For CC1(C)CCC(CN2CCN(c3ccc(C(=O)NS(=O)(=O)c4ccc(NCC5CCOCC5)c([N+](=O)[O-])c4)c(Oc4cnc5[nH]ccc5c4)c3)CC2)=C(c2ccc(Cl)cc2)C1 + CC1OCC2(CCN(c3cnc(Sc4ccnc(N)c4Cl)c(N)n3)CC2)C1N, which IC50 (second compound 0.0316 µM) is on record?
A: 5.15 µM

Q: And the IC50 (second compound 0.1 µM)?
A: 4.69 µM

Q: What about the IC50 (second compound 0.316 µM) of the same molecule?
A: 4.77 µM

Q: What about the IC50 (second compound 1 µM) of the same molecule?
A: 4.47 µM

Q: And the IC50 (second compound 3.16 µM)?
A: 3.51 µM

Q: And the IC50 (second compound 10 µM)?
A: 2.23 µM

Q: And the viability, T/C (second compound 0.0316 µM, first compound 0.0316 µM)?
A: 99.2%

Q: And the viability, T/C (second compound 0.0316 µM, first compound 0.1 µM)?
A: 116%

Q: And the viability, T/C (second compound 0.0316 µM, first compound 0.316 µM)?
A: 109%

Q: What about the viability, T/C (second compound 0.0316 µM, first compound 1 µM) of the same molecule?
A: 108%

Q: What about the viability, T/C (second compound 0.0316 µM, first compound 3.16 µM) of the same molecule?
A: 83.8%

Q: And the viability, T/C (second compound 0.0316 µM, first compound 10 µM)?
A: 4.11%

Q: And the viability, T/C (second compound 0.1 µM, first compound 0.0316 µM)?
A: 116%

Q: And the viability, T/C (second compound 0.1 µM, first compound 0.1 µM)?
A: 110%

Q: What about the viability, T/C (second compound 0.1 µM, first compound 0.316 µM) of the same molecule?
A: 102%

Q: What about the viability, T/C (second compound 0.1 µM, first compound 1 µM) of the same molecule?
A: 94.9%

Q: What about the viability, T/C (second compound 0.1 µM, first compound 3.16 µM) of the same molecule?
A: 78.6%

Q: And the viability, T/C (second compound 0.1 µM, first compound 10 µM)?
A: 1.56%

Q: And the viability, T/C (second compound 0.316 µM, first compound 0.0316 µM)?
A: 91.5%

Q: And the viability, T/C (second compound 0.316 µM, first compound 0.1 µM)?
A: 124%

Q: What about the viability, T/C (second compound 0.316 µM, first compound 0.316 µM) of the same molecule?
A: 122%

Q: What about the viability, T/C (second compound 0.316 µM, first compound 1 µM) of the same molecule?
A: 110%

Q: And the viability, T/C (second compound 0.316 µM, first compound 3.16 µM)?
A: 75.6%

Q: And the viability, T/C (second compound 0.316 µM, first compound 10 µM)?
A: 3.8%

Q: What about the viability, T/C (second compound 1 µM, first compound 0.0316 µM) of the same molecule?
A: 91%

Q: And the viability, T/C (second compound 1 µM, first compound 0.1 µM)?
A: 95%

Q: And the viability, T/C (second compound 1 µM, first compound 0.316 µM)?
A: 102%

Q: What about the viability, T/C (second compound 1 µM, first compound 1 µM) of the same molecule?
A: 92.3%

Q: What about the viability, T/C (second compound 1 µM, first compound 3.16 µM) of the same molecule?
A: 71.6%

Q: What about the viability, T/C (second compound 1 µM, first compound 10 µM) of the same molecule?
A: 0.34%

Q: And the viability, T/C (second compound 3.16 µM, first compound 0.0316 µM)?
A: 93.2%

Q: And the viability, T/C (second compound 3.16 µM, first compound 0.1 µM)?
A: 91.9%

Q: What about the viability, T/C (second compound 3.16 µM, first compound 0.316 µM) of the same molecule?
A: 93%

Q: And the viability, T/C (second compound 3.16 µM, first compound 1 µM)?
A: 66.1%

Q: What about the viability, T/C (second compound 3.16 µM, first compound 3.16 µM) of the same molecule?
A: 61.3%

Q: And the viability, T/C (second compound 3.16 µM, first compound 10 µM)?
A: 0.92%

Q: And the viability, T/C (second compound 10 µM, first compound 0.0316 µM)?
A: 76%

Q: What about the viability, T/C (second compound 10 µM, first compound 0.1 µM) of the same molecule?
A: 76.2%

Q: And the viability, T/C (second compound 10 µM, first compound 0.316 µM)?
A: 85.1%

Q: What about the viability, T/C (second compound 10 µM, first compound 1 µM) of the same molecule?
A: 69.8%

Q: What about the viability, T/C (second compound 10 µM, first compound 3.16 µM) of the same molecule?
A: 40.9%

Q: What about the viability, T/C (second compound 10 µM, first compound 10 µM) of the same molecule?
A: 0.29%

Q: Which IC50 (second compound 0.00949 µM) does the source give for CC1OCC2(CCN(c3cnc(Sc4ccnc(N)c4Cl)c(N)n3)CC2)C1N (centres undefined) + C=CC(=O)N1CCN(c2nc(OCC3CCCN3C)nc3c2CCN(c2cccc4cccc(C)c24)C3)CC1CC#N here?
A: > 10 µM

Q: What about the IC50 (second compound 0.03 µM) of the same molecule?
A: > 10 µM

Q: And the IC50 (second compound 0.0949 µM)?
A: > 10 µM

Q: And the IC50 (second compound 0.3 µM)?
A: > 10 µM

Q: And the IC50 (second compound 0.949 µM)?
A: 5.36 µM

Q: And the IC50 (second compound 3 µM)?
A: 0.387 µM

Q: What about the viability, T/C (second compound 0.00949 µM, first compound 0.0316 µM) of the same molecule?
A: 112%

Q: And the viability, T/C (second compound 0.00949 µM, first compound 0.1 µM)?
A: 102%

Q: What about the viability, T/C (second compound 0.00949 µM, first compound 0.316 µM) of the same molecule?
A: 99.9%

Q: And the viability, T/C (second compound 0.00949 µM, first compound 1 µM)?
A: 82.3%

Q: What about the viability, T/C (second compound 0.00949 µM, first compound 3.16 µM) of the same molecule?
A: 71.1%

Q: And the viability, T/C (second compound 0.00949 µM, first compound 10 µM)?
A: 73.6%

Q: And the viability, T/C (second compound 0.03 µM, first compound 0.0316 µM)?
A: 109%

Q: And the viability, T/C (second compound 0.03 µM, first compound 0.1 µM)?
A: 116%

Q: What about the viability, T/C (second compound 0.03 µM, first compound 0.316 µM) of the same molecule?
A: 89.8%

Q: And the viability, T/C (second compound 0.03 µM, first compound 1 µM)?
A: 87.3%

Q: And the viability, T/C (second compound 0.03 µM, first compound 3.16 µM)?
A: 66%

Q: And the viability, T/C (second compound 0.03 µM, first compound 10 µM)?
A: 67.9%

Q: What about the viability, T/C (second compound 0.0949 µM, first compound 0.0316 µM) of the same molecule?
A: 98.5%

Q: And the viability, T/C (second compound 0.0949 µM, first compound 0.1 µM)?
A: 96.4%

Q: And the viability, T/C (second compound 0.0949 µM, first compound 0.316 µM)?
A: 90%

Q: What about the viability, T/C (second compound 0.0949 µM, first compound 1 µM) of the same molecule?
A: 79.5%

Q: And the viability, T/C (second compound 0.0949 µM, first compound 3.16 µM)?
A: 74.1%

Q: What about the viability, T/C (second compound 0.0949 µM, first compound 10 µM) of the same molecule?
A: 66.5%

Q: And the viability, T/C (second compound 0.3 µM, first compound 0.0316 µM)?
A: 86.7%

Q: What about the viability, T/C (second compound 0.3 µM, first compound 0.1 µM) of the same molecule?
A: 90.7%

Q: What about the viability, T/C (second compound 0.3 µM, first compound 0.316 µM) of the same molecule?
A: 89.4%

Q: And the viability, T/C (second compound 0.3 µM, first compound 1 µM)?
A: 69.1%

Q: What about the viability, T/C (second compound 0.3 µM, first compound 3.16 µM) of the same molecule?
A: 72.9%

Q: And the viability, T/C (second compound 0.3 µM, first compound 10 µM)?
A: 56.1%

Q: What about the viability, T/C (second compound 0.949 µM, first compound 0.0316 µM) of the same molecule?
A: 63%

Q: And the viability, T/C (second compound 0.949 µM, first compound 0.1 µM)?
A: 79.5%

Q: And the viability, T/C (second compound 0.949 µM, first compound 0.316 µM)?
A: 83.2%

Q: What about the viability, T/C (second compound 0.949 µM, first compound 1 µM) of the same molecule?
A: 71.8%

Q: And the viability, T/C (second compound 0.949 µM, first compound 3.16 µM)?
A: 60.4%

Q: What about the viability, T/C (second compound 0.949 µM, first compound 10 µM) of the same molecule?
A: 37.9%

Q: What about the viability, T/C (second compound 3 µM, first compound 0.0316 µM) of the same molecule?
A: 55.4%

Q: What about the viability, T/C (second compound 3 µM, first compound 0.1 µM) of the same molecule?
A: 67.6%

Q: What about the viability, T/C (second compound 3 µM, first compound 0.316 µM) of the same molecule?
A: 48%

Q: What about the viability, T/C (second compound 3 µM, first compound 1 µM) of the same molecule?
A: 35.7%

Q: What about the viability, T/C (second compound 3 µM, first compound 3.16 µM) of the same molecule?
A: 4.99%

Q: What about the viability, T/C (second compound 3 µM, first compound 10 µM) of the same molecule?
A: 0.43%
